According to ChEMBL document CHEMBL1148513, “Synthetic studies of neoclerodane diterpenes from Salvia divinorum: selective modification of the furan ring” (Bioorg Med Chem Lett, 2006):

Columns and labels:
[1] = molecular target: T1, Kappa-type opioid receptor (Homo sapiens, UniProt P41145); assay: Displacement of [125I]IOXY from human kappa opioid receptor
[2] = molecular target: Delta-type opioid receptor (Homo sapiens, UniProt P41143); assay: Displacement of [125I]IOXY from human delta opioid receptor
Mu-type opioid receptor = Mu-type opioid receptor (Homo sapiens, UniProt P35372); assay: Displacement of [125I]IOXY from human mu opioid receptor
[3] = molecular target: T1, Kappa-type opioid receptor; assay: Agonist activity at human kappa opioid receptor stably transfected in CHO cells by [35S]GTP-gamma-S assay; type: functional, cell-based
[4] = molecular target: T1, Kappa-type opioid receptor; assay: Agonist activity at human kappa opioid receptor stably transfected in CHO cells by [35S]GTPgammaS assay relative to (-)-U50488; type: functional, cell-based

Chain of Mu-type opioid receptor (P35372 whole entry): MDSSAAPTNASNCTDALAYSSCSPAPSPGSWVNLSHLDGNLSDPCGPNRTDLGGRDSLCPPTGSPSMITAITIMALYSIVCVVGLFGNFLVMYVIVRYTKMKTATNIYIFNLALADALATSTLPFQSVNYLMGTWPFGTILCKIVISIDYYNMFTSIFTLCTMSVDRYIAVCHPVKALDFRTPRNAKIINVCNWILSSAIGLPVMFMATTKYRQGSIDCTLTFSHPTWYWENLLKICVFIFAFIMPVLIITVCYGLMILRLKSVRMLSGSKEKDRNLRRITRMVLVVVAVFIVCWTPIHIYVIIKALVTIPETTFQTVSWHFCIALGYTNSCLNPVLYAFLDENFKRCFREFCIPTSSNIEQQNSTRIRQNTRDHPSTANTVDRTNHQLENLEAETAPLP
Chain of Delta-type opioid receptor (P41143 whole entry): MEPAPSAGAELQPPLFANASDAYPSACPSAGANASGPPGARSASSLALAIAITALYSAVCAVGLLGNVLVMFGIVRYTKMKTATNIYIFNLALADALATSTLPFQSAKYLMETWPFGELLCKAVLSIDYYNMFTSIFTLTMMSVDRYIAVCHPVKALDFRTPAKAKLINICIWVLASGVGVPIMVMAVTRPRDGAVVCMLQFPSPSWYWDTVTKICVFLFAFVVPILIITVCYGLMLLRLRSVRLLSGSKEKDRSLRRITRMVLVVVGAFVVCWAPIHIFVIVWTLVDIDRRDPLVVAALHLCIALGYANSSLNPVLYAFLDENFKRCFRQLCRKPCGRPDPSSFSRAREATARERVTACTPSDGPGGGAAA
T1 sequence (P41145 whole entry): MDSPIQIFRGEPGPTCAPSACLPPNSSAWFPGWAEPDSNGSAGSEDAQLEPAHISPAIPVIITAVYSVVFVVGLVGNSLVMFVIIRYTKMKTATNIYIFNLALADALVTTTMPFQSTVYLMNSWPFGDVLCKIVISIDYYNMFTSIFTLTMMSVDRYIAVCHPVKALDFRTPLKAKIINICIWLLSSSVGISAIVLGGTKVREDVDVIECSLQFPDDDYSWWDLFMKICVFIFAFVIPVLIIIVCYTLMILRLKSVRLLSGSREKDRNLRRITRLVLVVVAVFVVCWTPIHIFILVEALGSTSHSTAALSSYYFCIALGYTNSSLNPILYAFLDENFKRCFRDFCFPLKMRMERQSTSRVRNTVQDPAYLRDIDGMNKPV

SMILES: COC(=O)c1coc([C@@H]2C[C@]3(C)[C@H]4C(=O)[C@@H](OC(C)=O)C[C@@H](C(=O)OC)[C@]4(C)CC[C@H]3C(=O)O2)n1
- Ki [1]: 8.53 µM
- Ki [2]: > 10 µM
- Ki (Mu-type opioid receptor): > 10 µM

SMILES: COC(=O)[C@@H]1C[C@H](OC(C)=O)C(=O)[C@H]2[C@@]1(C)CC[C@H]1C(=O)O[C@H](c3ccn(S(=O)(=O)c4ccccc4)c3)C[C@]21C
- ED50 [3]: 9.16 µM
- Ki [1]: 0.41 µM
- Emax [4]: 60%
- Ki [2]: > 10 µM
- Ki (Mu-type opioid receptor): > 10 µM

SMILES: COC(=O)[C@@H]1C[C@H](OC(C)=O)C(=O)[C@H]2[C@@]1(C)CC[C@H]1C(=O)O[C@H](c3ccn(S(C)(=O)=O)c3)C[C@]21C
- ED50 [3]: 3.6 µM
- Ki [1]: 0.84 µM
- Emax [4]: 70%
- Ki [2]: > 10 µM
- Ki (Mu-type opioid receptor): > 10 µM

SMILES: COC(=O)[C@@H]1C[C@H](OC(C)=O)C(=O)[C@H]2[C@@]1(C)CC[C@H]1C(=O)O[C@H](c3ccn(S(=O)(=O)c4ccc(OC)cc4)c3)C[C@]21C
- ED50 [3]: 15.2 µM
- Ki [1]: 1.62 µM
- Emax [4]: 60%
- Ki [2]: > 10 µM
- Ki (Mu-type opioid receptor): > 10 µM
